In PMC12457685 (Scientific Reports, 2025):
Where “and” joins values, the source holds several entries; their conditions need not be identical. Identical values can stand only once. Non-standard residues stand in square brackets, D forms with d. Residues, ends and D or L forms follow the SMILES beside them. Pra = C#CC[C@H](N)C(=O)O

What was measured:
SARS-CoV-2 Alpha RBD = SARS-CoV-2 Alpha RBD (Severe acute respiratory syndrome coronavirus 2, UniProt P0DTC2); test: biochemical; type: binding
SARS-CoV-1 RBD = SARS-CoV-1 RBD (Severe acute respiratory syndrome coronavirus, UniProt P59594); test: biochemical; type: binding
[1] = molecular target: SARS-CoV-1 spike RBD RBD (Severe acute respiratory syndrome coronavirus), P59594; test: SPR; conditions: modification not given

Molecule | Kd (SARS-CoV-2 Alpha RBD) [nM] | kon (SARS-CoV-2 Alpha RBD; read-out: ka) [M⁻¹ s⁻¹] | ka (SARS-CoV-2 Alpha RBD; spr) | Kd (SARS-CoV-1 RBD) [nM] | kon (SARS-CoV-1 RBD; read-out: ka) [M⁻¹ s⁻¹] | Kd [1] [nM]
C#CC[C@H](NC(=O)[C@H](CC(C)C)NC(=O)[C@H](CCCCN)NC(=O)[C@@H](NC(=O)[C@@H](NC(=O)[C@H](CC(C)C)NC(=O)[C@H](CC(N)=O)NC(=O)[C@H](Cc1ccc(O)cc1)NC(=O)[C@@H](NC(=O)[C@H](CCC(=O)O)NC(=O)[C@H](Cc1ccc(O)cc1)NC(=O)[C@H](CC(C)C)NC(=O)[C@@H]1CCCN1C(=O)[C@H](Cc1ccc(O)cc1)NC(=O)[C@H](CCSC)NC(=O)[C@H](CCC(N)=O)NC(=O)[C@H](C)NC(=O)[C@H](CC(C)C)NC(=O)[C@@H](NC(=O)[C@H](CO)NC(=O)[C@@H](N)CCC(N)=O)[C@@H](C)O)[C@@H](C)CC)[C@@H](C)O)C(C)C)C(N)=O [a2] (H-QSTLAQMYPLYEIYNLTVKL[Pra]-NH2) | 89 ± 5 | 59300 | 5,66e4 M-1s-1 and 6,08e4 M-1s-1 | 21 ± 5 | 85900 | –
QSTLAQMYPLYEIYNLTVKL [ACE2 epitope a2] | – | – | – | – | – | 21
